This note sets out measurements from patent US20250236616A1, “IMMUNOMODULATING AZALIDES” (Zoetis Services LLC, priority 2021, published 2025).

Format in all cases: cell-based
The test system of one test is TNF-α. In words: Whole bovine blood assay, LPS-induced TNF-α. To be noted: fresh whole bovine blood, LPS stimulant; top drug concentration 250 μM. The method in brief:
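Fresh heparinized bovine whole blood was preincubated with compound 4 h at 37 °C, then stimulated with LPS (final 1 μg/mL) for 18 h at 37 °C. Plasma TNF-α was quantified by MSD U-Plex chemiluminescent immunoassay, normalized to total protein (BCA), and IC50 taken for LPS-induced TNF-α inhibition.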

In the next test the test system is IL-1β. The test is described as follows: Whole bovine blood assay, LPS-induced IL-1β (inhibition / overstimulation). To be noted: drug concentration giving overstimulation (OS) of LPS-induced IL-1β, top concentration 250 μM. The method in brief: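 IL-1β was quantified by MSD U-Plex chemiluminescence in plasma and normalized to BCA total protein. Bovine blood was pretreated 4 h at 37 °C with compound dilutions before 18 h LPS challenge (1 μg/mL final). Rising IL-1β at high concentrations was recorded as overstimulation.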

Another test relates to IL-6. The test is described as follows: Whole bovine blood assay, LPS-induced IL-6. As to conditions: fresh whole bovine blood, LPS stimulant; top drug concentration 250 μM.

As usually defined, the IC50 is the concentration needed to halve the response being measured. High values mean weaker potency, low ones greater potency. One may read the minimal effective concentration as the lowest level tested that produced the effect sought. High values mean a need for much substance, low ones an effect from little substance. As for `CC[C@H]1OC(=O)[C@H](C)[C@@H](O[C@H]2C[C@@](C)(OC)[C@](O)(CN3CCN(S(C)(=O)=O)CC3)[C@H](C)O2)[C@H](C)[C@@H](O[C@@H]2O[C@H](C)C[C@H](N(C)S(=O)(=O)Nc3ccc(C(F)(F)F)cc3)[C@H]2O)[C@](C)(O)C[C@@H](C)CN[C@H](C)[C@@H](O)[C@]1(C)O` [Example C-15], the IC50 was 10 µM with TNF-α and 48 µM in the test on IL-6. The minimal effective concentration with IL-1β was found to be 16 µM.

Consider `CCCNC[C@]1(O)[C@H](C)O[C@@H](O[C@H]2[C@H](C)[C@@H](O[C@@H]3O[C@H](C)C[C@H](N(C)S(=O)(=O)N4Cc5ccccc5C4)[C@H]3O)[C@](C)(O)C[C@@H](C)CN[C@H](C)[C@@H](O)[C@](C)(O)[C@@H](CC)OC(=O)[C@@H]2C)C[C@@]1(C)OC` [Example B-45], for which the 50% inhibitory concentration (IC50) in the test with TNF-α is 16 µM; with IL-6, 8 µM. Moreover, the minimal effective concentration in the test with IL-1β is reported as 3 µM.

As to `CCCNC[C@]1(O)[C@H](C)O[C@@H](O[C@H]2[C@H](C)[C@@H](O[C@@H]3O[C@H](C)C[C@H](N(C)S(=O)(=O)c4nccn4C)[C@H]3Oc3ccccn3)[C@](C)(O)C[C@@H](C)CN[C@H](C)[C@@H](O)[C@](C)(O)[C@@H](CC)OC(=O)[C@@H]2C)C[C@@]1(C)OC` [Example B-131], the figures for the IC50 in the test with TNF-α and with IL-6 were 28 µM and 17 µM, respectively. In addition, in the test with IL-1β, the minimal effective concentration came to 6 µM.

On to `CC[C@H]1OC(=O)[C@H](C)[C@@H](O[C@H]2C[C@@](C)(OC)[C@](O)(CNc3ccc(OC)cc3)[C@H](C)O2)[C@H](C)[C@@H](O[C@@H]2O[C@H](C)C[C@H](N(C)S(N)(=O)=O)[C@H]2O)[C@](C)(O)C[C@@H](C)CN[C@H](C)[C@@H](O)[C@]1(C)O` [Example B-125], for which the IC50 in the test on TNF-α came to 34 µM; in the test on IL-6, 88 µM. Moreover, the minimal effective concentration with IL-1β turned out to be 16 µM.

Consider `CC[C@H]1OC(=O)[C@H](C)[C@@H](O[C@H]2C[C@@](C)(OC)[C@](O)(CNC)[C@H](C)O2)[C@H](C)[C@@H](O[C@@H]2O[C@H](C)C[C@H](N(C)S(=O)(=O)c3ccc(Cl)cc3)[C@H]2O)[C@](C)(O)C[C@@H](C)CN[C@H](C)[C@@H](O)[C@]1(C)O` [Example B-38], for which the values for the IC50 with TNF-α and in the test with IL-6 were 32 µM and 22 µM, respectively. The same compound had a minimal effective concentration in the test with IL-1β of 5 µM.

Turning to `CCCNC[C@]1(O)[C@H](C)O[C@@H](O[C@H]2[C@H](C)[C@@H](O[C@@H]3O[C@H](C)C[C@H](N(C)S(=O)(=O)c4ccc(Cl)cc4)[C@H]3Oc3ccc(F)cc3)[C@](C)(O)C[C@@H](C)CN[C@H](C)[C@@H](O)[C@](C)(O)[C@@H](CC)OC(=O)[C@@H]2C)C[C@@]1(C)OC` [Example B-106], the IC50 in the test with TNF-α stood at 7 µM; in the test with IL-6, 9 µM. Besides, in the test on IL-1β, the minimal effective concentration worked out at 3 µM.

For `CC[C@H]1OC(=O)[C@H](C)[C@@H](O[C@H]2C[C@@](C)(OC)[C@](O)(CN3CCCCC3)[C@H](C)O2)[C@H](C)[C@@H](O[C@@H]2O[C@H](C)C[C@H](N(C)S(=O)(=O)c3ccccc3)[C@H]2Oc2ccc(F)cc2)[C@](C)(O)C[C@@H](C)CN[C@H](C)[C@@H](O)[C@]1(C)O` [Example C-54], the IC50 with TNF-α is 2 µM; in the test with IL-6 it was 4 µM. The compound further gave a minimal effective concentration in the test with IL-1β of 6 µM.

As to `CCCNC[C@]1(O)[C@H](C)O[C@@H](O[C@H]2[C@H](C)[C@@H](O[C@@H]3O[C@H](C)C[C@H](N(Cc4ccccc4)S(=O)(=O)c4nccn4C)[C@H]3O)[C@](C)(O)C[C@@H](C)CN[C@H](C)[C@@H](O)[C@](C)(O)[C@@H](CC)OC(=O)[C@@H]2C)C[C@@]1(C)OC` [Example B-143], the IC50 with TNF-α turned out to be 7 µM; with IL-6 it was 8 µM. This compound also had a minimal effective concentration in the test with IL-1β of 2 µM.

Regarding `CC[C@H]1OC(=O)[C@H](C)[C@@H](O)[C@H](C)[C@@H](O[C@@H]2O[C@H](C)C[C@H](N(C)S(=O)(=O)c3ccc(F)cc3)[C@H]2Oc2ccc(F)cc2)[C@](C)(O)C[C@@H](C)CN[C@H](C)[C@@H](O)[C@]1(C)O` [Example A-25], the IC50 in the test on TNF-α was 75 µM; in the test with IL-6, 28 µM. This compound returned a minimal effective concentration in the test with IL-1β of 16 µM.

With `CCCNC[C@]1(O)[C@H](C)O[C@@H](O[C@H]2[C@H](C)[C@@H](O[C@@H]3O[C@H](C)C[C@H](N(C)S(=O)(=O)c4ncn(C)c4Cl)[C@H]3Oc3ccc(OC)cc3)[C@](C)(O)C[C@@H](C)CN[C@H](C)[C@@H](O)[C@](C)(O)[C@@H](CC)OC(=O)[C@@H]2C)C[C@@]1(C)OC` [Example B-111], the IC50 with TNF-α is more than 250 µM; with IL-6, 141 µM. In the test with IL-1β, this compound returned a minimal effective concentration of 17 µM.

With `CC[C@H]1OC(=O)[C@H](C)[C@@H](O[C@H]2C[C@@](C)(OC)[C@](O)(CNCCCF)[C@H](C)O2)[C@H](C)[C@@H](O[C@@H]2O[C@H](C)C[C@H](N(C)S(=O)(=O)Nc3ccc(C(F)(F)F)cc3)[C@H]2O)[C@](C)(O)C[C@@H](C)CN[C@H](C)[C@@H](O)[C@]1(C)O` [Example B-91], the IC50 with TNF-α was determined as 34 µM; in the test on IL-6, 101 µM. Further, the minimal effective concentration in the test with IL-1β is on record as 2 µM.

Regarding `CCCNC[C@]1(O)[C@H](C)O[C@@H](O[C@H]2[C@H](C)[C@@H](O[C@@H]3O[C@H](C)C[C@H](N(C)S(=O)(=O)c4nccn4C)[C@H]3Oc3cccc([S+](C)[O-])c3)[C@](C)(O)C[C@@H](C)CN[C@H](C)[C@@H](O)[C@](C)(O)[C@@H](CC)OC(=O)[C@@H]2C)C[C@@]1(C)OC` (stereo partly drawn) [Example B-139], the IC50 turned out to be 40 µM with TNF-α and 73 µM with IL-6. Moreover, the minimal effective concentration with IL-1β was found to be 40 µM.

For the compound `CC[C@H]1OC(=O)[C@H](C)[C@@H](O[C@H]2C[C@@](C)(OC)[C@](O)(CN3CCCCC3)[C@H](C)O2)[C@H](C)[C@@H](O[C@@H]2O[C@H](C)C[C@H](N(C)S(=O)(=O)c3ccccc3)[C@H]2Oc2ccnc(F)c2)[C@](C)(O)C[C@@H](C)CN[C@H](C)[C@@H](O)[C@]1(C)O` [Example C-55], the IC50 amounted to 6 µM with TNF-α and 9 µM with IL-6. The minimal effective concentration in the test with IL-1β worked out at 6 µM.

For `CC[C@H]1OC(=O)[C@H](C)[C@@H](O[C@H]2C[C@@](C)(OC)[C@](O)(Cn3cnnn3)[C@H](C)O2)[C@H](C)[C@@H](O[C@@H]2O[C@H](C)C[C@H](N(C)S(=O)(=O)c3ccc(Cl)cc3)[C@H]2O)[C@](C)(O)C[C@@H](C)CN[C@H](C)[C@@H](O)[C@]1(C)O` [Example C-9], the IC50 in the test with TNF-α and with IL-6 was 23 µM each time. The same compound came in with a minimal effective concentration in the test with IL-1β of 8 µM.

Take `CC[C@H]1OC(=O)[C@H](C)[C@@H](O[C@H]2C[C@@](C)(OC)[C@](O)(CN3CCS(=O)(=O)CC3)[C@H](C)O2)[C@H](C)[C@@H](O[C@@H]2O[C@H](C)C[C@H](N(C)S(=O)(=O)Nc3ccc(C(F)(F)F)cc3)[C@H]2O)[C@](C)(O)C[C@@H](C)CN[C@H](C)[C@@H](O)[C@]1(C)O` [Example C-13]: the IC50 in the test with TNF-α and with IL-6 was more than 250 µM in each case. In the test with IL-1β, this compound registered a minimal effective concentration of 6 µM.

On to `CC[C@H]1OC(=O)[C@H](C)[C@@H](O[C@H]2C[C@@](C)(OC)[C@](O)(CNCCN(C)C)[C@H](C)O2)[C@H](C)[C@@H](O[C@@H]2O[C@H](C)C[C@H](N(C)S(=O)(=O)Nc3ccc(C(F)(F)F)cc3)[C@H]2O)[C@](C)(O)C[C@@H](C)CN[C@H](C)[C@@H](O)[C@]1(C)O` [Example B-82], for which the values for the IC50 in the test with TNF-α and in the test with IL-6 were 71 µM and more than 250 µM, respectively. The compound further showed a minimal effective concentration in the test with IL-1β of more than 250 µM.

Consider `CC[C@H]1OC(=O)[C@H](C)[C@@H](O[C@H]2C[C@@](C)(OC)[C@](O)(CN3CCCC3)[C@H](C)O2)[C@H](C)[C@@H](O[C@@H]2O[C@H](C)C[C@H](N(C)S(=O)(=O)c3ccc(Cl)cc3)[C@H]2O)[C@](C)(O)C[C@@H](C)CN[C@H](C)[C@@H](O)[C@]1(C)O` [Example C-3], for which the IC50 was found to be 5 µM with TNF-α and 9 µM with IL-6. This compound came in with a minimal effective concentration with IL-1β of 16 µM.

As for `CC[C@H]1OC(=O)[C@H](C)[C@@H](O[C@H]2C[C@@](C)(OC)[C@](O)(CN3CCCCC3)[C@H](C)O2)[C@H](C)[C@@H](O[C@@H]2O[C@H](C)C[C@H](N(C)S(=O)(=O)N(CC)CC)[C@H]2O)[C@](C)(O)C[C@@H](C)CN[C@H](C)[C@@H](O)[C@]1(C)O` [Example C-35], the figures for the IC50 in the test on TNF-α and in the test on IL-6 were 33 µM and 23 µM, respectively. For the same compound, the minimal effective concentration in the test on IL-1β was 11 µM.

Take `CCCNC[C@]1(O)[C@H](C)O[C@@H](O[C@H]2[C@H](C)[C@@H](O[C@@H]3O[C@H](C)C[C@H](N(C)S(=O)(=O)NC4CCCCC4)[C@H]3O)[C@](C)(O)C[C@@H](C)CN[C@H](C)[C@@H](O)[C@](C)(O)[C@@H](CC)OC(=O)[C@@H]2C)C[C@@]1(C)OC` [Example B-56]: the IC50 is 86 µM in the test on TNF-α and 26 µM in the test on IL-6. The minimal effective concentration in the test on IL-1β worked out at 16 µM.

Turning to `CC[C@H]1OC(=O)[C@H](C)[C@@H](O[C@H]2C[C@@](C)(OC)[C@](O)(CN3CCN(C)CC3)[C@H](C)O2)[C@H](C)[C@@H](O[C@@H]2O[C@H](C)C[C@H](N(C)S(=O)(=O)c3ccc(Cl)cc3)[C@H]2O)[C@](C)(O)C[C@@H](C)CN[C@H](C)[C@@H](O)[C@]1(C)O` [Example C-7], the IC50 with TNF-α amounted to 66 µM; in the test with IL-6, 50 µM. The same compound returned a minimal effective concentration in the test on IL-1β of 6 µM.

As to `CCCNC[C@]1(O)[C@H](C)O[C@@H](O[C@H]2[C@H](C)[C@@H](O[C@@H]3O[C@H](C)C[C@H](N(C)S(=O)(=O)c4nccn4C)[C@H]3Oc3cccc(CO)c3)[C@](C)(O)C[C@@H](C)CN[C@H](C)[C@@H](O)[C@](C)(O)[C@@H](CC)OC(=O)[C@@H]2C)C[C@@]1(C)OC` [Example B-134], the results for the IC50 in the test on TNF-α and in the test on IL-6 were 17 µM and 83 µM, respectively. Also, in the test with IL-1β, the minimal effective concentration stood at 40 µM.
